Results published in EP4038059B1, “SUBSTITUTED CARBAZOLE COMPOUNDS” (Bristol-Myers Squibb Company, priority 2019, dated 2021).

Key:
Assay type in all cases: cell-based
human TLR8 = target: T1, human TLR8 (Homo sapiens, UniProt Q9NR97); experiment: TLR8 inhibition reporter assay (HEK-Blue SEAP); conditions: HEK-Blue cells overexpressing human TLR8, stimulated with R848 15.9 µM, 22 h incubation
T1 construct: host or cells: HEK-Blue cells
T1 sequence (Q9NR97 27-1041): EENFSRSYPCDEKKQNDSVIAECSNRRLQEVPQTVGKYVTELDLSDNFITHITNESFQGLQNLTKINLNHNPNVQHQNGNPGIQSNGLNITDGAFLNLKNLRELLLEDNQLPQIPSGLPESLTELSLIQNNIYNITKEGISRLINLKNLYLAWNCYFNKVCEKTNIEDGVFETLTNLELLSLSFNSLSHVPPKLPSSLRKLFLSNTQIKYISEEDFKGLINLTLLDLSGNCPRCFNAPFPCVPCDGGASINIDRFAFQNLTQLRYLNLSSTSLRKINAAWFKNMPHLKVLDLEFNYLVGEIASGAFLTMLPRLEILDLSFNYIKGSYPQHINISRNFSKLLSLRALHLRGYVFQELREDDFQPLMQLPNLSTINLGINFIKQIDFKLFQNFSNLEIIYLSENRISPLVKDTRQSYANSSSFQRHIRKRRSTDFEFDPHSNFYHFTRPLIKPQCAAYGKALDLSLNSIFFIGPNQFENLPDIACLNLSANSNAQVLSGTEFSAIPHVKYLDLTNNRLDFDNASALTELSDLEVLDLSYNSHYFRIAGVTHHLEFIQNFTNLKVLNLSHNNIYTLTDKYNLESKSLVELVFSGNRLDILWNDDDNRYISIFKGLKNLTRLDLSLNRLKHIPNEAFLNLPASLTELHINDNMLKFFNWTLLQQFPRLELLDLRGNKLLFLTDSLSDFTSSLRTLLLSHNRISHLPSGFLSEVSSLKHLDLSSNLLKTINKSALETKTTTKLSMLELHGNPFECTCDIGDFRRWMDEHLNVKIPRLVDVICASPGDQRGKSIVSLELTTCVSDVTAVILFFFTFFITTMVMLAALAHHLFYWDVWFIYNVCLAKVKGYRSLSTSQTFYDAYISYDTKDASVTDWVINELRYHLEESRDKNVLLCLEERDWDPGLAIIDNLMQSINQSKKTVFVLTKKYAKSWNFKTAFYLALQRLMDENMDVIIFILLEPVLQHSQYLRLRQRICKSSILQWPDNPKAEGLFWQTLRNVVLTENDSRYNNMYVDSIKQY
Description: (§1) HEK-Blue™-cells (Invivogen) overexpressing human TLR7, TLR8 or TLR9 receptors were used for screening inhibitors of these receptors using an inducible SEAP (secreted embryonic alkaline phosphatase) reporter gene under the control of the IFN-β minimal promoter fused to five NF-κB and AP-1-binding sites. Briefly, cells are seeded into Greiner 384 well plates (15000 cells per well for TLR7, 20,000 for TLR8 and 25,000 for TLR9) and then treated with test compounds in DMSO to yield a final dose response concentration range of 0.05 nM - 50 µM. After a 30 minute compound pre-treatment at room temperature, the cells are then stimulated with a TLR7 ligand (gardiquimod at a final concentration of 7.5 µM), TLR8 ligand (R848 at a final concentration of 15.9 µM) or TLR9 ligand (ODN2006 at a final concentration of 5 nM) to activate NF-κB and AP-1 which induce the production of SEAP. After a 22 h incubation at 37°C, 5% CO2, SEAP levels are determined with the addition of HEK-Blue™ Detection reagent (Invivogen), a cell culture medium that allows for detection of SEAP, according to manufacturer's specifications. The percent inhibition is determined as the % reduction in the HEK-Blue signal present in wells treated with agonist plus DMSO alone compared to wells treated with a known inhibitor.

human TLR9 = target: T2, human TLR9 (Homo sapiens, UniProt Q9NR96); experiment: TLR9 inhibition reporter assay (HEK-Blue SEAP); conditions: HEK-Blue cells overexpressing human TLR9, stimulated with ODN2006 5 nM, 22 h incubation
T2 construct: host or cells: HEK-Blue cells
T2 sequence (Q9NR96 26-1032): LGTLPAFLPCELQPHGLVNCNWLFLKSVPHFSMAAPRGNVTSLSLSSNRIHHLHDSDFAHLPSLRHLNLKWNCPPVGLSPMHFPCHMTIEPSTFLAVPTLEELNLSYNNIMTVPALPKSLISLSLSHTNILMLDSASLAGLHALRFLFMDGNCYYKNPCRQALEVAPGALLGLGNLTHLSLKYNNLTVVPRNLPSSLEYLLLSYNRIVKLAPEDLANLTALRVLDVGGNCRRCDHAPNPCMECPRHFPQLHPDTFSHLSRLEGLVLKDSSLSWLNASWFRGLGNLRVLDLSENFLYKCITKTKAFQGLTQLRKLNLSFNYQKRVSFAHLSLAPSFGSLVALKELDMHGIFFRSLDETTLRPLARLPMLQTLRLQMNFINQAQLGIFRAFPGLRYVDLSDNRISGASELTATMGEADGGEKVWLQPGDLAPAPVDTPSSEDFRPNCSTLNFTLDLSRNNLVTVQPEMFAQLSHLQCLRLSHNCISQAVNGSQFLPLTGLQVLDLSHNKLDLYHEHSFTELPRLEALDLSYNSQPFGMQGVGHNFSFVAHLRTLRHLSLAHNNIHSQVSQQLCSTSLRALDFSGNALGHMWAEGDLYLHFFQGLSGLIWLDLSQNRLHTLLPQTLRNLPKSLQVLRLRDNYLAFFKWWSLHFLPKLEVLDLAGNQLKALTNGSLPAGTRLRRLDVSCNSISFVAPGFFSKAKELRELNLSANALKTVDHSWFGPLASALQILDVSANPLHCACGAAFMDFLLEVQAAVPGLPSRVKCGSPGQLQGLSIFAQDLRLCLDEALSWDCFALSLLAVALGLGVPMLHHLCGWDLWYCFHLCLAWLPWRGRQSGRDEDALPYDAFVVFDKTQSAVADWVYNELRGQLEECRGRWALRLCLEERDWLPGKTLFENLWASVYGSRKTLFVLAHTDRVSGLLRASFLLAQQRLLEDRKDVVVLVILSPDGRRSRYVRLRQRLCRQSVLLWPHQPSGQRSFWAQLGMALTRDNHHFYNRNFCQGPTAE
Description: as §1

human TLR7 = target: T3, human TLR7 (Homo sapiens, UniProt Q9NYK1); experiment: TLR7 inhibition reporter assay (HEK-Blue SEAP); conditions: HEK-Blue cells overexpressing human TLR7, stimulated with gardiquimod 7.5 µM, 22 h incubation
T3 construct: host or cells: HEK-Blue cells
T3 sequence (Q9NYK1 27-1049): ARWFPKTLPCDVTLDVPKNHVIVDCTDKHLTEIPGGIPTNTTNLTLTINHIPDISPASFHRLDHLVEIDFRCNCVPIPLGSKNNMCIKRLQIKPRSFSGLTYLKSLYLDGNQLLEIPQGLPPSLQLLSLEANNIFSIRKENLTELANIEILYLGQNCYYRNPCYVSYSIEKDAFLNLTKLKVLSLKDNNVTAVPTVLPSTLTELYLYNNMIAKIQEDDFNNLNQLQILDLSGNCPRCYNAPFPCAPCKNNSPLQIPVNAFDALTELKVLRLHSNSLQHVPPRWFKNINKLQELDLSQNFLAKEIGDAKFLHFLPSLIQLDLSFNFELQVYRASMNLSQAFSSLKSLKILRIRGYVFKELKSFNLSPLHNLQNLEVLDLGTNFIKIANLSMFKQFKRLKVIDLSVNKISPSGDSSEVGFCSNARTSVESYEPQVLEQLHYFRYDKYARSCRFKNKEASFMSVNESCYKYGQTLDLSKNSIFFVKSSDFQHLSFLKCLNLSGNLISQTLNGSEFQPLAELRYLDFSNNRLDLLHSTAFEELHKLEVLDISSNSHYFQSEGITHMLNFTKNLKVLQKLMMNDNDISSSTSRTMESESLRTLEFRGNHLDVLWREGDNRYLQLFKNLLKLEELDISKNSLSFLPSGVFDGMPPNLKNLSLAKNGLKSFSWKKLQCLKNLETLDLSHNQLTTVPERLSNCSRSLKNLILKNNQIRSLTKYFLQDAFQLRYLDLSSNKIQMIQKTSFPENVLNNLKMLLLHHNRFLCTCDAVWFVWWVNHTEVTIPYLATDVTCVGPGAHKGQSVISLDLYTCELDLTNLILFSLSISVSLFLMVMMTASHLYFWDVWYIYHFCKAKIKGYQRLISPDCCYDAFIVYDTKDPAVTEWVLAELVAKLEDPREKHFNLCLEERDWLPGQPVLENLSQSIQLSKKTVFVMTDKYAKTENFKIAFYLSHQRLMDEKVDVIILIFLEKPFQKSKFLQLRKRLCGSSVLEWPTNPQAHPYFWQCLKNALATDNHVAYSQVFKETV
Description: as §1

| IC50 (human TLR8) | IC50 (human TLR9) | IC50 (human TLR7) | SMILES |
| --- | --- | --- | --- |
| 2.4 nM | 350 nM | 2.2 nM | Cc1c(-c2cc(C)c3c(c2)[nH]c2ccc(C4CCNCC4)cc23)cn(C)c(=O)c1C [Example 10, 1,3,4-trimethyl-5-(4-methyl-6-(piperidin-4-yl)-9H-carbazol-2-yl)pyridin-2(1H)-one] |
| 6.8 nM | 349 nM | 0.7 nM | Cc1cc(-c2cc(C)c3ncnn3c2)cc2[nH]c3ccc(C4CCNCC4)cc3c12 [Example 13] |
